# Source: patent US20120309796A1, “BENZOCYCLOHEPTENE ACETIC ACIDS” (priority 2011, published 2012)
# Molecular target: T1, human CRTH2 (Homo sapiens, UniProt Q9Y5Y4)
# T1 sequence (Q9Y5Y4 1-395): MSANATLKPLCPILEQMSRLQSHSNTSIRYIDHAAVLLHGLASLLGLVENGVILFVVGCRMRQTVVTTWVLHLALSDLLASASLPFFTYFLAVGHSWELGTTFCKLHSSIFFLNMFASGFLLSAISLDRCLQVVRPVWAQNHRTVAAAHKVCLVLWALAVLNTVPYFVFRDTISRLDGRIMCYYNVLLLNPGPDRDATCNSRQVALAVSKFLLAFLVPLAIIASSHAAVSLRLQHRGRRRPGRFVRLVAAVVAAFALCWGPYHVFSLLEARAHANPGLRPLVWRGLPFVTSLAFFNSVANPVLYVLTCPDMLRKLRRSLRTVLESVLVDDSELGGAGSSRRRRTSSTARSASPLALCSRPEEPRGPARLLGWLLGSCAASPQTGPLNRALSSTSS
# Test: Human CRTH2 Receptor Binding Assay (whole cell, [3H]ramatroban competition)
# Design: two mammalian expression vectors that harbored human CRTH2 and G-alpha16 cDNAs; expressed in transfected cells
# Conditions: CHO-K1 cells expressing human CRTH2 and G-alpha16; 20 nM [3H]ramatroban; 1 hour, room temperature
# Outline: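 CHO-K1 cells stably co-expressing human CRTH2 and G-alpha16 (1.5×10^5/reaction) incubated 1 h at room temperature with 20 nM [3H]ramatroban in PBS, 10 mM MgCl2, 0.06% BSA. Non-specific binding defined with 10 μM 15(R)-15-methyl PGD2; IC50 from 7-point inhibition of specific binding, 4-parameter logistic fit.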
row,IC50,SMILES
1,24.5 nM,"O=C(O)COc1cccc2c1CCCCC2NS(=O)(=O)c1cc(C(F)(F)F)cc(C(F)(F)F)c1 (single isomer, unassigned) [Example 46, [5-(3,5-Bis-trifluoromethyl-benzenesulfonylamino)-6,7,8,9-tetrahydro-5H-benzocyclohepten-1-yloxy]-acetic acid]"
2,8.9 nM,"O=C(O)COc1cccc2c1CCCCC2NS(=O)(=O)c1cc(C(F)(F)F)cc(C(F)(F)F)c1 (centres unmarked) [Example 1, [5-(3,5-Bis-trifluoromethyl-benzenesulfonylamino)-6,7,8,9-tetrahydro-5H-benzocyclohepten-1-yloxy]-acetic acid]"
